Test results from article PMC10196118, “Evidence for broad cross-reactivity of the SARS-CoV-2 NSP12-directed CD4^+ T-cell response with pre-primed responses directed against common cold coronaviruses” (Frontiers in Immunology, 2023).

Legend:
[1] = tested on: CD4+ T cells; experiment: Peptide-specific CD4+ T-cell response: IFN-γ ELISpot validated by intracellular cytokine staining after in vitro expansion; format: cell-based, human; settings: COVID-19 patients (acute or resolved, n = 27); peptide 10 µg/ml; share of individuals with a positive response
[2] = tested on: pre-cultured PBMCs (NSP12-specific T cells); experiment: IFN-γ ELISpot with single 15-mer peptides after 11–13 days in vitro peptide-pool T-cell expansion; format: cell-based, human; settings: single NSP12 15-mer peptides
[3] = tested on: 11 DRB1-HLA molecules; experiment: In vitro HLA class II binding, number of DRB1 alleles bound; set-up: species or system human; settings: number of the 11 DRB1-HLA molecules tested bound with an affinity of 1,000 nM or better (in vitro)

Structure (SMILES): CC(C)C[C@H](NC(=O)[C@H](CCCNC(=N)N)NC(=O)[C@H](Cc1ccc(O)cc1)NC(=O)[C@H](Cc1ccccc1)NC(=O)[C@H](CCCNC(=N)N)NC(=O)[C@H](Cc1c[nH]cn1)NC(=O)[C@H](CO)NC(=O)[C@H](CC(C)C)NC(=O)[C@H](CO)NC(=O)[C@@H](N)CS)C(=O)N[C@@H](C)C(=O)N[C@@H](CC(N)=O)C(=O)N[C@@H](CCC(=O)O)C(=O)N[C@@H](CS)C(=O)N[C@@H](C)C(=O)O [NSP12_130]
- RF (response frequency), CD4+ T-cell response [1]: 26%
- peptide-specific response, donor HH-N12-18, post COVID-19 ([2]; donor HH-N12-18, sample post COVID-19): 0
- peptide-specific response, donor HH-N12-18, pre COVID-19 ([2]; donor HH-N12-18, sample pre COVID-19): 0
- peptide-specific response, donor HH-N12-34, post COVID-19 ([2]; donor HH-N12-34, sample post COVID-19): 0.031
- peptide-specific response, donor HH-N12-34, pre COVID-19 ([2]; donor HH-N12-34, sample pre COVID-19): 0.09
- peptide-specific response, donor HH-N12-35, post COVID-19 ([2]; donor HH-N12-35, sample post COVID-19): 0
- peptide-specific response, donor HH-N12-35, pre COVID-19 ([2]; donor HH-N12-35, sample pre COVID-19): 0
- peptide-specific response, donor HH-N12-36, post COVID-19 ([2]; donor HH-N12-36, sample post COVID-19): 0.06
- peptide-specific response, donor HH-N12-36, pre COVID-19 ([2]; donor HH-N12-36, sample pre COVID-19): 0
- peptide-specific response, donor HH-N12-37, post COVID-19 ([2]; donor HH-N12-37, sample post COVID-19): 0.032
- peptide-specific response, donor HH-N12-37, pre COVID-19 ([2]; donor HH-N12-37, sample pre COVID-19): 0
- Alleles bound [3]: 8
